Numbered stars: 1 amine (or outer) side, 2 acyl side, 3 side chain; on linkers, the order of the positions; unused ones are H or OH. Square brackets hold non-standard residues; d marks the D form. Side chains are listed from the residue outwards. Peptide text beside a SMILES is read from it. * marks the point of attachment. C18 diacid = O=C(O)CCCCCCCCCCCCCCCCC(=O)*; γGlu = O=C(O)[C@H](CCC(=O)[*:2])N[*:1]; AEEA = NCCOCCOCC(=O)O; Aib = CC(C)(N)C(=O)O

The target in this assay is glucagon receptor (Homo sapiens, UniProt P47871). The experiment in a line: cell-based.
Sequence of glucagon receptor (P47871 26-477): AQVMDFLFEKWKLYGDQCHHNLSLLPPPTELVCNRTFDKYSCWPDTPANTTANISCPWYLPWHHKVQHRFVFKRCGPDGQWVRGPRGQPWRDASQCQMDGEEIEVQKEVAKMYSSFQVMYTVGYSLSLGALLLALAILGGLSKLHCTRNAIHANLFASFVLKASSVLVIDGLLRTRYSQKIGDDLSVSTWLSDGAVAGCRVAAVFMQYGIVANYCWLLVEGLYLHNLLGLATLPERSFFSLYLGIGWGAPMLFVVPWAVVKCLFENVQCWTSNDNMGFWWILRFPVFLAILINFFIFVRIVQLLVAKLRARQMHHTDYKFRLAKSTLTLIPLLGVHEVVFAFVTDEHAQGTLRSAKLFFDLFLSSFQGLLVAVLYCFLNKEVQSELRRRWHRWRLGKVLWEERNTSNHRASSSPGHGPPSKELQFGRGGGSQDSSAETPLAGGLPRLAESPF
Method: The cells (14000 per well) were incubated (37° C., 5% CO2) overnight in 384-well plates. Next day the cells were loaded with a calcium responsive dye that only distributed into the cytoplasm. Probenecid, an inhibitor of the organic anion transporter, was added to prevent the dye from leaving the cell. A PDE inhibitor was added to prevent formatted cAMP from being degraded. […] End point data were collected after 6 minutes. An increase in intracellular cAMP was proportional to an increased in calcium concentrations in the cytoplasm. […] EC50-values were calculated in Prism5.
On to `CSCC[C@H](NC(=O)[C@H](CC(C)C)NC(=O)[C@H](Cc1c[nH]c2ccccc12)NC(=O)[C@H](CCC(N)=O)NC(=O)[C@@H](NC(=O)[C@H](Cc1ccccc1)NC(=O)[C@H](CC(=O)O)NC(=O)[C@H](CCCNC(=N)N)NC(=O)[C@H](C)NC(=O)[C@H](CCCNC(=N)N)NC(=O)[C@H](CCC(N)=O)NC(=O)[C@H](CCC(=O)O)NC(=O)[C@H](CC(=O)O)NC(=O)[C@H](CC(C)C)NC(=O)[C@H](Cc1ccc(O)cc1)NC(=O)[C@H](CCCCN)NC(=O)[C@H](CO)NC(=O)[C@H](Cc1ccc(O)cc1)NC(=O)[C@H](CC(=O)O)NC(=O)[C@H](CO)NC(=O)[C@@H](NC(=O)[C@H](Cc1ccccc1)NC(=O)[C@@H](NC(=O)CNC(=O)[C@H](CCC(N)=O)NC(=O)[C@H](CO)NC(=O)[C@@H](N)Cc1c[nH]cn1)[C@@H](C)O)[C@@H](C)O)C(C)C)C(=O)N[C@@H](CC(N)=O)C(=O)N[C@H](C(=O)N[C@@H](CCCCNC(=O)COCCOCCNC(=O)COCCOCCNC(=O)CC[C@H](NC(=O)CCCCCCCCCCCCCCCCC(=O)O)C(=O)O)C(N)=O)[C@@H](C)O` [Example 26, N^α ([Glu^16,Gln^17,Arg^20] Glucagonyl) N^ε-([2-[2-[2-[[2-[2-[2-[[(4S)-5-hydroxy-4-[(18-hydroxy-18-oxooctadecanoyl)amino]-5-oxopentanoyl]amino]ethoxy]ethoxy]acetyl]amino]ethoxy]ethoxy]acetyl]) Lysinyl amide] (H-HSQGTFTSDYSKYLDEQRARDFVQWLMNTK([AEEA-AEEA-γGlu-C18 diacid])-NH2; N-terminus assumed), for which the concentration for a half-maximal effect (EC50) (in general, the concentration that produces a half-maximal response) came out at 0.192 nM. This lies in the sub-nanomolar range.

Compound `CSCC[C@H](NC(=O)[C@H](CC(C)C)NC(=O)[C@H](Cc1c[nH]c2ccccc12)NC(=O)[C@H](CCC(N)=O)NC(=O)[C@@H](NC(=O)[C@H](Cc1ccccc1)NC(=O)[C@H](CC(=O)O)NC(=O)[C@H](CCCNC(=N)N)NC(=O)[C@H](C)NC(=O)[C@H](C)NC(=O)[C@H](CCC(N)=O)NC(=O)[C@H](CCC(=O)O)NC(=O)[C@H](CC(=O)O)NC(=O)[C@H](CC(C)C)NC(=O)[C@H](Cc1ccc(O)cc1)NC(=O)[C@H](CCCCN)NC(=O)[C@H](CO)NC(=O)[C@H](Cc1ccc(O)cc1)NC(=O)[C@H](CC(=O)O)NC(=O)[C@H](CO)NC(=O)[C@@H](NC(=O)[C@H](Cc1ccccc1)NC(=O)[C@@H](NC(=O)CNC(=O)[C@H](CCC(N)=O)NC(=O)[C@H](CO)NC(=O)[C@@H](N)Cc1c[nH]cn1)[C@@H](C)O)[C@@H](C)O)C(C)C)C(=O)N[C@@H](CC(N)=O)C(=O)N[C@H](C(=O)N[C@@H](CCCCNC(=O)COCCOCCNC(=O)COCCOCCNC(=O)CC[C@H](NC(=O)CCCCCCCCCCCCCCCCC(=O)O)C(=O)O)C(N)=O)[C@@H](C)O` [Example 27, N^α ([Glu^16,Gln^17,Ala^18,Arg^20]Glucagonyl) N^ε-([2-[2-[2-[[2-[2-[2-[[(4S)-5-hydroxy-4-[(18-hydroxy-18-oxooctadecanoyl)amino]-5-oxopentanoyl]amino]ethoxy]ethoxy]acetyl]amino]ethoxy]ethoxy]acetyl]) Lysinyl amide] (H-HSQGTFTSDYSKYLDEQAARDFVQWLMNTK([AEEA-AEEA-γGlu-C18 diacid])-NH2; N-terminus assumed) showed a concentration for a half-maximal effect (EC50) of 0.406 nM.

Turning to `CC(C)C[C@H](NC(=O)[C@H](Cc1ccc(O)cc1)NC(=O)[C@H](CCCCN)NC(=O)[C@H](CO)NC(=O)[C@H](Cc1ccc(O)cc1)NC(=O)[C@H](CC(=O)O)NC(=O)[C@H](CO)NC(=O)[C@@H](NC(=O)[C@H](Cc1ccccc1)NC(=O)[C@@H](NC(=O)CNC(=O)[C@H](CCC(N)=O)NC(=O)C(C)(C)NC(=O)[C@@H](N)Cc1c[nH]cn1)[C@@H](C)O)[C@@H](C)O)C(=O)N[C@@H](CC(=O)O)C(=O)N[C@@H](CCC(=O)O)C(=O)N[C@@H](CCCNC(=N)N)C(=O)N[C@@H](CCCNC(=N)N)C(=O)N[C@@H](C)C(=O)N[C@@H](CCC(N)=O)C(=O)N[C@@H](CC(=O)O)C(=O)N[C@@H](Cc1ccccc1)C(=O)N[C@H](C(=O)N[C@@H](CCCCNC(=O)COCCOCCNC(=O)COCCOCCNC(=O)CC[C@H](NC(=O)CCCCCCCCCCCCCCCCC(=O)O)C(=O)O)C(=O)N[C@@H](Cc1c[nH]c2ccccc12)C(=O)N[C@@H](CC(C)C)C(=O)N[C@@H](CC(C)C)C(=O)N[C@@H](CC(N)=O)C(=O)N[C@H](C(N)=O)[C@@H](C)O)C(C)C` [Example 29, N^ε24-([2-[2-[2-[[2-[2-[2-[[(4S)-5-hydroxy-4-[(18-hydroxy-18-oxooctadecanoyl)amino]-5-oxopentanoyl]amino]ethoxy]ethoxy]acetyl]amino]ethoxy]ethoxy]acetyl]) [Aib^2,Glu^16,Lys^24,Leu^27]Glucagon peptide amide] (H-H[Aib]QGTFTSDYSKYLDERRAQDFVK([AEEA-AEEA-γGlu-C18 diacid])WLLNT-NH2; N-terminus assumed), the EC50 turned out to be 0.135 nM.

With `CC(C)C[C@H](NC(=O)[C@H](Cc1ccc(O)cc1)NC(=O)[C@H](CCCCN)NC(=O)[C@H](CO)NC(=O)[C@H](Cc1ccc(O)cc1)NC(=O)[C@H](CC(=O)O)NC(=O)[C@H](CO)NC(=O)[C@@H](NC(=O)[C@H](Cc1ccccc1)NC(=O)[C@@H](NC(=O)CNC(=O)[C@H](CCC(N)=O)NC(=O)[C@@H](CO)NC(=O)[C@@H](N)Cc1c[nH]cn1)[C@@H](C)O)[C@@H](C)O)C(=O)N[C@@H](CC(=O)O)C(=O)N[C@@H](CCC(=O)O)C(=O)N[C@@H](CCC(N)=O)C(=O)N[C@@H](C)C(=O)N[C@@H](C)C(=O)N[C@@H](CCCNC(=N)N)C(=O)N[C@@H](CC(=O)O)C(=O)N[C@@H](Cc1ccccc1)C(=O)N[C@H](C(=O)N[C@@H](CCCCNC(=O)COCCOCCNC(=O)COCCOCCNC(=O)CC[C@H](NC(=O)CCCCCCCCCCCCCCCCC(=O)O)C(=O)O)C(=O)N[C@@H](Cc1c[nH]c2ccccc12)C(=O)N[C@@H](CC(C)C)C(=O)N[C@@H](CC(C)C)C(=O)N[C@@H](CC(N)=O)C(=O)N[C@H](C(N)=O)[C@@H](C)O)C(C)C` [Example 30, N^ε24-([2-[2-[2-[[2-[2-[2-[[(4S)-5-hydroxy-4-[(18-hydroxy-18-oxooctadecanoyl)amino]-5-oxopentanoyl]amino]ethoxy]ethoxy]acetyl]amino]ethoxy]ethoxy]acetyl]) [D-Ser^2,Glu^16,Gln^17,Ala^18,Arg^20,Lys^24,Leu^27] Glucagon peptide amide] (H-H[dS]QGTFTSDYSKYLDEQAARDFVK([AEEA-AEEA-γGlu-C18 diacid])WLLNT-NH2; N-terminus assumed), a half-maximal effect (EC50) was put at 0.137 nM.
